Assay results from patent US20230277452A1, “COMPOSITIONS, DEVICES AND METHODS FOR TREATING NASAL, OTIC AND OTHER TISSUE INFECTION AND/OR INFLAMMATION” (priority 2020, published 2023).

What was measured:
in vivo = details: male, Merino, sheep, in vivo
Experimental: The control article was 0.9% saline.
Blood was collected (via a jugular vein cannula inserted during surgery) during the 10-day post-dose phase for pharmacokinetics, hematology, clinical chemistry, glucose, and morning cortisol analysis.
Because of the variability in the volume of the sinus in sheep, the total volume varied from 5 to 15 mL. Doses calculated by body weight and body surface area (BSA) are also shown.

[1] = Forced degradation of neat mometasone furoate monohydrate, percent recovery and degradant peaks by HPLC; assay type: physicochemical; parameters: key to Degradant peak, RRT 0.61 with respect to MFM / Degradant peak, RRT 0.71 with respect to MFM / Degradant peak, RRT 0.79 with respect to MFM / Degradant peak, RRT 0.87* with respect to MFM / Degradant peak, RRT 1.07 with respect to MFM / Degradant peak, RRT 1.12* with respect to MFM / Degradant peak, RRT 0.96* with respect to MFM: ≥0.05% Peak Area; detected above the 0.05% cutoff; “—” indicates no peak; details: for Degradant peak, RRT 0.87* with respect to MFM / Degradant peak, RRT 0.96* with respect to MFM / Degradant peak, RRT 1.12* with respect to MFM: related substance; for Actual Amount: neat MFM
Experimental: Degradation and impurity analysis of the creams was performed using HPLC. The following parameters were used for the analysis of mometasone furoate monohydrate.
Neat mometasone furoate monohydrate (MFM) material was degraded and analyzed for potential chromatographic interference. Briefly, neat MFM was exposed to various conditions to induce degradation including heat (60° C./5 days), light (6 inches away from a white bench light for 5 days), acid (0.1N HCl for 1 hour followed by neutralization with 0.1N NaOH), base (0.1N NaOH for 1 hour followed by neutralization with 0.1N HCl), and oxidation (3% H2O2 for 1 hour). All samples including the degraded samples, control samples (dissolved in HPLC-grade methanol), and the reference solution were analyzed.
Percent recovery is provided in Table 48 below for each condition.
Table 49 below provides the Relative Retention Times (RRTs) and detection ≥0.05% for the samples.

[2] = Recovery of force-degraded MFM spiked into placebo cream and of active cream (0.1% MFM), HPLC; assay type: physicochemical; details: for Peak Area MFM / Peak Area RRT = 0.61 / Peak Area RRT = 0.71 / Peak Area RRT = 0.79 / Peak Area RRT = 0.87 / Peak Area RRT = 0.96 / Peak Area RRT = 1.07 / Peak Area RRT = 1.12 / Total MFM-Related Area: Spiked into placebo
Experimental: MFM neat and degraded materials were spiked into placebo cream (lot #2020-11-01) to investigate potential partitioning effects and peak interferences and to compare spiked and active cream samples by the procedure in Table 50 with the exception that for acid, base and peroxide degradations, the additions of HCl, NaOH and peroxide were calculated accordingly.
Percent recovery of Force-Degraded Materials Spiked into Placebo is provided in Table 51 below while recovery of active cream formulation (0.1% MFM) is provided in Table 52 below.

[3] = Betamethasone plasma concentration, Mean
[4] = Individual betamethasone plasma concentrations
[5] = degraded neat material, 0.1N HC1
[6] = degraded neat material, 0.1N NaOH
[7] = degraded neat material, 3% H2O2
[8] = degraded neat material, 60° C. for 5 days
[9] = degraded neat material, White light for 5 days

**Q.** What does the source list for `C[C@H]1C[C@H]2[C@@H]3CCC4=CC(=O)C=C[C@]4(C)[C@@]3(F)[C@@H](O)C[C@]2(C)[C@@]1(O)C(=O)CO` [Betamethasone, betamethasone]?
**A.** AUC(0-inf) (in vivo): 35.2 ± 8.3 ng·h/mL; AUC(0-t) (in vivo): 33.5 ± 8.9 ng·h/mL; Cmax (in vivo): 0.98 ± 0.397 ng/mL; Tmax (in vivo): 24 h; plasma levels detected through (in vivo): 3 days post-dose; time of maximum plasma levels (in vivo): about 24 hr post-dose; concentration at 0 h (in vivo; [3]): 0 ng/mL; concentration at 0.5 h (in vivo; [3]): 0.152 ng/mL; concentration at 1 h (in vivo; [3]): 0.307 ng/mL; concentration at 2 h (in vivo; [3]): 0.518 ng/mL; concentration at 6 h (in vivo; [3]): 0.74 ng/mL; concentration at 24 h (in vivo; [3]): 0.964 ng/mL; concentration at 48 h (in vivo; [3]): 0.223 ng/mL; concentration at 72 h (in vivo; [3]): 0.071 ng/mL; concentration at 0 h (in vivo; [4]): 0 ng/mL; concentration at 48 h (in vivo; [4]): 0.229 ng/mL

**Q.** What does the source list for `C[C@@H]1C[C@H]2[C@@H]3CCC4=CC(=O)C=C[C@]4(C)[C@@]3(Cl)[C@@H](O)C[C@]2(C)[C@@]1(OC(=O)c1ccco1)C(=O)CCl` [MFM, mometasone furoate monohydrate]?
**A.** Degradant peak, RRT 0.61 with respect to MFM [1, 5]: detected (≥0.05% Peak Area; detected above the 0.05% cutoff); Degradant peak, RRT 0.71 with respect to MFM [1, 5]: detected (≥0.05% Peak Area; detected above the 0.05% cutoff); Degradant peak, RRT 0.79 with respect to MFM [1, 5]: detected (≥0.05% Peak Area; detected above the 0.05% cutoff); Degradant peak, RRT 1.07 with respect to MFM [1, 5]: detected (≥0.05% Peak Area; detected above the 0.05% cutoff); Degradant peak, RRT 0.87* with respect to MFM [1, 5]: detected (≥0.05% Peak Area; detected above the 0.05% cutoff); Degradant peak, RRT 0.96* with respect to MFM [1, 5]: detected (≥0.05% Peak Area; detected above the 0.05% cutoff); Degradant peak, RRT 1.12* with respect to MFM [1, 5]: detected (≥0.05% Peak Area; detected above the 0.05% cutoff); Degradant peak, RRT 0.61 with respect to MFM [1, 6]: —; Degradant peak, RRT 0.71 with respect to MFM [1, 6]: —; Degradant peak, RRT 0.79 with respect to MFM [1, 6]: —; Degradant peak, RRT 1.07 with respect to MFM [1, 6]: detected (≥0.05% Peak Area; detected above the 0.05% cutoff); Degradant peak, RRT 0.87* with respect to MFM [1, 6]: —; Degradant peak, RRT 0.96* with respect to MFM [1, 6]: detected (≥0.05% Peak Area; detected above the 0.05% cutoff); Degradant peak, RRT 1.12* with respect to MFM [1, 6]: detected (≥0.05% Peak Area; detected above the 0.05% cutoff); Degradant peak, RRT 0.61 with respect to MFM [1, 7]: —; Degradant peak, RRT 0.71 with respect to MFM [1, 7]: —; Degradant peak, RRT 0.79 with respect to MFM [1, 7]: —; Degradant peak, RRT 1.07 with respect to MFM [1, 7]: —; Degradant peak, RRT 0.87* with respect to MFM [1, 7]: —; Degradant peak, RRT 0.96* with respect to MFM [1, 7]: detected (≥0.05% Peak Area; detected above the 0.05% cutoff); Degradant peak, RRT 1.12* with respect to MFM [1, 7]: —; Degradant peak, RRT 0.61 with respect to MFM [1, 8]: —; Degradant peak, RRT 0.71 with respect to MFM [1, 8]: —; Degradant peak, RRT 0.79 with respect to MFM [1, 8]: —; Degradant peak, RRT 1.07 with respect to MFM [1, 8]: —; Degradant peak, RRT 0.87* with respect to MFM [1, 8]: —; Degradant peak, RRT 0.96* with respect to MFM [1, 8]: detected (≥0.05% Peak Area; detected above the 0.05% cutoff); Degradant peak, RRT 1.12* with respect to MFM [1, 8]: —; Degradant peak, RRT 0.61 with respect to MFM [1, 9]: —; Degradant peak, RRT 0.71 with respect to MFM [1, 9]: —; Degradant peak, RRT 0.79 with respect to MFM [1, 9]: —; Degradant peak, RRT 1.07 with respect to MFM [1, 9]: —; Degradant peak, RRT 0.87* with respect to MFM [1, 9]: —; Degradant peak, RRT 0.96* with respect to MFM [1, 9]: —; Degradant peak, RRT 1.12* with respect to MFM [1, 9]: —; Actual Amount ([1]; Acid (0.1N HCl, 1 hour)): 240.289 µg/mL; Actual Amount ([1]; Base (0.1N NaOH, 1 hour)): 6.091 µg/mL; Actual Amount ([1]; Control): 254.279 µg/mL; Actual Amount ([1]; Heat (60° C./5 days)): 249.211 µg/mL; Actual Amount ([1]; Light (white light, 5 days)): 249.916 µg/mL; Actual Amount ([1]; Peroxide (3% H2O2, 1 hour)): 262.576 µg/mL; Degradant peak, RRT 0.61 with respect to MFM ([1]; neat material, 4° C. (Control)): —; Degradant peak, RRT 0.71 with respect to MFM ([1]; neat material, 4° C. (Control)): —; Degradant peak, RRT 0.79 with respect to MFM ([1]; neat material, 4° C. (Control)): —; Degradant peak, RRT 1.07 with respect to MFM ([1]; neat material, 4° C. (Control)): —; Degradant peak, RRT 0.87* with respect to MFM ([1]; neat material, 4° C. (Control)): —; Degradant peak, RRT 0.96* with respect to MFM ([1]; neat material, 4° C. (Control)): detected (≥0.05% Peak Area; detected above the 0.05% cutoff); Degradant peak, RRT 1.12* with respect to MFM ([1]; neat material, 4° C. (Control)): —; degradation due to the cream making process ([2]; 0.1% MFM cream, HPLC): no apparent degradation; Peak Area MFM ([2]; Acid): 116.720; Peak Area RRT = 0.61 ([2]; Acid): no peaks; Peak Area RRT = 0.71 ([2]; Acid): no peaks; Peak Area RRT = 0.79 ([2]; Acid): no peaks; Peak Area RRT = 0.87 ([2]; Acid): no peaks; Peak Area RRT = 0.96 ([2]; Acid): 2.964; Peak Area RRT = 1.07 ([2]; Acid): 0.05; Peak Area RRT = 1.12 ([2]; Acid): 0.353; Total MFM-Related Area ([2]; Acid): 120.087; Peak Area MFM ([2]; Base): 2.991; Peak Area RRT = 0.61 ([2]; Base): 0.097; Peak Area RRT = 0.71 ([2]; Base): 0.143; Peak Area RRT = 0.79 ([2]; Base): 0.433; Peak Area RRT = 0.87 ([2]; Base): 5.187; Peak Area RRT = 0.96 ([2]; Base): 14.967; Peak Area RRT = 1.07 ([2]; Base): 55.374; Peak Area RRT = 1.12 ([2]; Base): 10.016; Total MFM-Related Area ([2]; Base): 89.208; Peak Area MFM ([2]; Control): 125.120; Peak Area RRT = 0.61 ([2]; Control): no peaks; Peak Area RRT = 0.71 ([2]; Control): no peaks; Peak Area RRT = 0.79 ([2]; Control): no peaks; Peak Area RRT = 0.87 ([2]; Control): no peaks; Peak Area RRT = 0.96 ([2]; Control): 0.171; Peak Area RRT = 1.07 ([2]; Control): no peaks; Peak Area RRT = 1.12 ([2]; Control): no peaks; Total MFM-Related Area ([2]; Control): 125.291; Peak Area MFM ([2]; Heat): 122.536; Peak Area RRT = 0.61 ([2]; Heat): no peaks; Peak Area RRT = 0.71 ([2]; Heat): no peaks; Peak Area RRT = 0.79 ([2]; Heat): no peaks; Peak Area RRT = 0.87 ([2]; Heat): no peaks; Peak Area RRT = 0.96 ([2]; Heat): 0.161; Peak Area RRT = 1.07 ([2]; Heat): no peaks; Peak Area RRT = 1.12 ([2]; Heat): no peaks; Total MFM-Related Area ([2]; Heat): 122.697; Peak Area MFM ([2]; Light): 123.671; Peak Area RRT = 0.61 ([2]; Light): no peaks; Peak Area RRT = 0.71 ([2]; Light): no peaks; Peak Area RRT = 0.79 ([2]; Light): no peaks; Peak Area RRT = 0.87 ([2]; Light): no peaks; Peak Area RRT = 0.96 ([2]; Light): 0.152; Peak Area RRT = 1.07 ([2]; Light): no peaks; Peak Area RRT = 1.12 ([2]; Light): no peaks; Total MFM-Related Area ([2]; Light): 123.823; Peak Area MFM ([2]; Peroxide): 128.187; Peak Area RRT = 0.61 ([2]; Peroxide): no peaks; Peak Area RRT = 0.71 ([2]; Peroxide): no peaks; Peak Area RRT = 0.79 ([2]; Peroxide): no peaks; Peak Area RRT = 0.87 ([2]; Peroxide): no peaks; Peak Area RRT = 0.96 ([2]; Peroxide): 0.176; Peak Area RRT = 1.07 ([2]; Peroxide): no peaks; Peak Area RRT = 1.12 ([2]; Peroxide): no peaks; Total MFM-Related Area ([2]; Peroxide): 128.363
